Laboratory results reported in patent US12221432B2, “Estrogen receptor antagonist” (CHIA TAI TIANQING PHARMACEUTICAL GROUP CO., LTD., priority 2018, dated 2025).
Where a name gives a salt, the structure may show the parent alone.

Columns and labels:
[1] = biological target: T1, CYP3A4 (Homo sapiens, UniProt P08684); experiment: Cytochrome P450 isoenzyme inhibition, CYP3A4; format: in vitro ADME; conditions: human liver microsomes; read-out: CYP enzyme inhibition (IC50) 3A4
T1 construct: tissue Corning Co., Ltd; host or cells: human liver microsomes
Text: Experimental objective: To determine the inhibitory effect of the test compound on the activity of human liver microsomal cytochrome P450 isoenzymes (CYP1A2, CYP2C9, CYP2C19, CYP2D6 and CYP3A4; Corning Co., Ltd.). […]

[2] = Pharmacokinetics study in rats (cassette); format: in vivo; conditions: female, SD, plasma, rat cassette PK
Text: (§1) Experimental objective: To determine the drug concentration in the plasma of the rats at different times after intravenous and oral administration of the test compounds by LC/MS/MS using female SD rats as the test animals. To investigate the pharmacokinetic performance of the test compounds in rats and to evaluate the pharmacokinetic characteristics.
Test animals: 4 healthy female SD rats were divided into 2 groups according to according to the principle of similar weight, 2 in the IV group and 2 in the PO group. Animal used in this study were purchased from Beijing Vital River Laboratory Animal Technology Co., Ltd.
(§2) IV group: Appropriate amounts of compounds were weighed respectively, prepared into 2 mg/mL solutions, then mixed to give a 0.5 mg/mL solution, which was stirred and ultrasonicated until a clear state. The vehicle was 15% HP-b-CD.
(§3) PO group: An appropriate amount of the IV group solution was taken and diluted to 0.4 mg/mL with 15% HP-b-CD.
(§4) Administration: After fasting overnight, the IV group was administered intravenously, and the dose of the test compound was 1 mg/kg; the PO group was administered intragastrically, and the dose of the test compound was 2 mg/kg.
(§5) Procedures: For IV group, 200 μL of blood was collected from the jugular vein of the female SD rats at 0.0833, 0.25, 0.5, 1, 2, 4, 8, and 24 hours post-dose, and placed in a commercial anticoagulant tube with EDTA-K2 added in advance. For PO group, 200 μL of blood was collected from the jugular vein of the female SD rats at 0.25, 0.5, 1, 2, 4, 8, 12 and 24 hours post-dose, and placed in a commercial anticoagulant tube with EDTA-K2 added in advance. The blood samples were centrifuged (3,200 g, 4° C., 10 minutes) to give plasma samples, which was transferred to a pre-cooled centrifuge tube, frozen in dry ice, and stored in an ultra-low temperature freezer at −60° C. or lower until the LC-MS/MS analysis. The animals were given free access to food 4 hours after the administration. LC/MS/MS method was used to determine the content of the test compounds in the plasma of […] after intravenous and oral administration. The linear range of the method is 2.00-2000 nM.

[3] = Pharmacokinetics study in mice (cassette); format: in vivo; conditions: female, Balb/c, plasma, mouse cassette PK
Text: as §1, with “Objective:” for “Experimental objective:”, “mice” for “rats”, “Balb/c mice” for “SD rats”
Test animals: 4 healthy female Balb/c mice were divided into 2 groups according to the principle of similar weight, 2 in the IV group and 2 in the PO group. The animals were purchased from Shanghai Lingchang Biotechnology Co., Ltd.
as §2, §3, §4
as §5, with “group, 30” for “group, 200”, “the saphenous” for “the jugular”, “female Balb/c mice” for “female SD rats”

[4] = iv, i.v. 1 mg/kg, read-out: Vdss

T1 sequence (P08684 whole entry): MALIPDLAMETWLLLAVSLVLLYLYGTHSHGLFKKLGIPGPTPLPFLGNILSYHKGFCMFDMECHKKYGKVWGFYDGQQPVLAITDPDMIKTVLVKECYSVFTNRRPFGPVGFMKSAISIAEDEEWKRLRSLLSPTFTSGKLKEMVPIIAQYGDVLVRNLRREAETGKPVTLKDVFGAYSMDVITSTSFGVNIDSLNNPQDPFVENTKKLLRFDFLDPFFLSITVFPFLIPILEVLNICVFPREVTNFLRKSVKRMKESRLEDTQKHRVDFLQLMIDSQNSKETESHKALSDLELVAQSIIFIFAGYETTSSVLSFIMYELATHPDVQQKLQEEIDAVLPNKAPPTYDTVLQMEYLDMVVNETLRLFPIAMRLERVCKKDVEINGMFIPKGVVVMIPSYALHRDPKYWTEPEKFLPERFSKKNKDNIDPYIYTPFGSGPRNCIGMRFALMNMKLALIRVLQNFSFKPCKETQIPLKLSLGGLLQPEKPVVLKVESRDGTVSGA

For CC/C(=C(/c1ccc(OCCNC/C=C/C(=O)N(C)C)nc1)c1[nH]c2ccccc2c1Cl)c1ccccc1 [Compound 3 monohydrochloride], the IC50 [1] was 9.8 µM, the AUC(0-t) ([2]; iv, i.v. 1 mg/kg) was 3.55 µM·h and the clearance ([2]; iv, i.v. 1 mg/kg) was 8.14 mL/min/kg. For the same compound, the half-life ([2]; iv, i.v. 1 mg/kg) was 6.65 h, the Vd [2, 4] was 4.46 L/kg and the AUC(0-t) ([2]; po, p.o. 2 mg/kg) was 5.21 µM·h. It also gave a Cmax ([2]; po, p.o. 2 mg/kg) of 464 nM, a Tmax ([2]; po, p.o. 2 mg/kg) of 2 h and a bioavailability ([2]; po, p.o. 2 mg/kg) of 73.3%. It also gave an AUC(0-t) ([3]; iv, i.v. 1 mg/kg) of 2.43 µM·h, a clearance ([3]; iv, i.v. 1 mg/kg) of 12.9 mL/min/kg and a half-life ([3]; iv, i.v. 1 mg/kg) of 3.37 h. The Vd [3, 4] was 3.46 L/kg, the AUC(0-t) ([3]; po, p.o. 2 mg/kg) was 1.27 µM·h and the Cmax ([3]; po, p.o. 2 mg/kg) was 224 nM. The Tmax ([3]; po, p.o. 2 mg/kg) was 0.25 h, the bioavailability ([3]; po, p.o. 2 mg/kg) was 26.1% and the half-life ([3]; po, p.o. 2 mg/kg) was 8.12 h.
